# US20080242681A1, “N-4-(6-(Hetero)Aryl-Pyrimidin-4-Ylaminophenyl)-Benzenesulfonamides as Kinase Inhibitors” (Altana Pharma AG, priority 2004, published 2008)
# Where a name gives a salt, the structure may show the parent alone.
# Biological target: T1, PKCθ (Homo sapiens, UniProt Q04759)
# T1 construct: made in house; host or cells: Sf21 insect cells
# Assay: Protein Kinase C θ assay (SPA)
# Type: biochemical
# Conditions: human recombinant PKCθ from Sf21 insect cells, read-out: IC50, inhibition of PKC θ
# Method: (§1) The compounds of formula 1 are tested for their activity on different protein kinases and PKC isoforms using a scintillation proximity assay (SPA, Amersham International plc). ^33P-labeled peptides are captured onto streptavidin coated yttrium silicate SPA beads. β-particles, emitted from the captured ^33P-labeled substrate in close proximity to the bead are able to excite the scintillant, resulting in the generation of quantifiable light. The assay is performed in a 96-well polystyrene microtiterplate (1450-514, Isoplates, Wallac, Turku, Finland). The reaction mixture (50 μl) contains 10 μl of the test compound together with 10 μl of the relevant kinase, diluted in the relevant dilution buffer, 5 μl of 10 μM phorbol myristate acetate (PMA) in H2O, 5 μl of 1.6 mM phosphatidylserine (Sigma-Aldrich Chemie GmbH, Stein-heim, Germany) in 20 mM Tris/HCL buffer pH 7.4, 5 μl of 0.3% BSA in H2O, 5 μl of 30 μM relevant substrate and 10 μl of 5 μM ATP and 0.1 μCi of ^33P-ATP (Amersham, Freiburg, Germany) in 200 mM Tris/HCL pH 7.5 and 200 mM MgCl2. Incubation is performed for 40 min at room temperature (RT) without shaking. Reaction is stopped by adding 150 μl of cold stop solution containing 10 mM ATP, 5 mM EGTA pH 7.5, 0.1% Triton X-100 and 0.2 mg streptavidin coated yttrium silicate SPA beads (Amersham, RPNQ 0012). The sealed plate is incubated for 60 min at RT. Thereafter the MTP is counted in a Microbeta Jet (Wallac). IC50 measurement is performed on a routine basis by incubation a serial dilution of inhibitor at concentrations ranging between 0.01 and 100 μM according to the method described above. Background values are the signals of the reaction mixture without addition of the relevant kinase and are subtracted from all values. 100% values are the signals of the reaction mixture without addition of inhibitors.
# (§2) Dependent on the efficacy of the inhibitors In the various test systems, corresponding IC50 values are calculated from concentration-inhibition curves by nonlinear regression analysis using the program GraphPad Prism (GraphPad Software Inc., San Diego, Calif.).
# (§3) Human recombinant nickel bead purified PKCθ from Sf21 insect cells is used under the assay conditions as described above (Section A.1). The enzyme is diluted in PKC dilution buffer containing 1 mM Hepes pH 7.4, 0.5 mM DTT and 0.001% Triton X-100. The kinase reaction is performed with the biotinylated PKCθ pseudosubstrate solved in H2O. The examples 8, 22, 46, 115, 118 and 161 inhibit PKC 9 in this assay with an IC50<1 μM.
# T1 sequence (Q04759 whole entry): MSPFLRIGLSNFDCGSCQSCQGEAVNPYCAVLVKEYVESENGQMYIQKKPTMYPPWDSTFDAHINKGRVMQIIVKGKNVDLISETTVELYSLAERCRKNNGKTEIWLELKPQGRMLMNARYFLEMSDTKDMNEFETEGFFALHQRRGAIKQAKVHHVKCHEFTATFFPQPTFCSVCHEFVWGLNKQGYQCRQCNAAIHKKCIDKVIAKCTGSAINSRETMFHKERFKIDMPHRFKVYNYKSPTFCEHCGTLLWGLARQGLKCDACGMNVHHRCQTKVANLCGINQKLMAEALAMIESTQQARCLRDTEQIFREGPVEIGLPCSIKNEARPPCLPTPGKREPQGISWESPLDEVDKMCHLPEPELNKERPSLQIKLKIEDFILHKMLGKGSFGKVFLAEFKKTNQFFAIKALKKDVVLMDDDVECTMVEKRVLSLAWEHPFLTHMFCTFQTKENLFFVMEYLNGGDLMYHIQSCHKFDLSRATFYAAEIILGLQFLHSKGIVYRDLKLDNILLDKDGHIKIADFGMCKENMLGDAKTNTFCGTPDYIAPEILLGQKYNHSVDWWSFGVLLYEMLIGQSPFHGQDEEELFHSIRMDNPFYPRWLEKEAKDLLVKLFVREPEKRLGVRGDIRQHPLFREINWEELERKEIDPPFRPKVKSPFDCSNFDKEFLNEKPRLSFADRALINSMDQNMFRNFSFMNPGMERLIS
row,Compound,IC50
1,"COc1ccc(S(=O)(=O)Nc2ccc(Nc3cc(-c4cccc(OCCCN5CCOCC5)c4)ncn3)cc2)cc1 [Example 46, 4-Methoxy-N-(4-{6-[3-(3-morpholin-4-yl-propoxy)-phenyl]-pyrimidin-4-ylamino}-phenyl)-benzenesulfonamide]",< 1 µM
2,"O=S(=O)(Nc1ccc(Nc2cc(-c3ccc4c(ccn4CCN4CCCC4)c3)ncn2)cc1)c1ccc(F)c(Cl)c1 [Example 161, 3-Chloro-4-fluoro-N-(4-{6-[1-(2-pyrrolidin-1-yl-ethyl)-1H-indol-5-yl]pyrimidin-4-ylamino}-phenyl)-benzenesulfonamide formic acid salt]",< 1 µM

# Other lines, results leading:
row,IC50,Compound
1,< 1 µM,"O=S(=O)(Nc1ccc(Nc2cc(-c3ccccc3)ncn2)cc1)c1c(F)cccc1F [Example 8, 2,6-Difluoro-N-[4-(6-phenyl-pyrimidin-4-ylamino)-phenyl]-benzenesulfonamide]"
2,< 1 µM,"CC1Cc2cc(-c3cc(Nc4ccc(NS(=O)(=O)c5c(F)cccc5F)cc4)ncn3)ccc2O1 (stereo not shown) [Example 115, 2,6-Difluoro-N-{4-[6-(2-methyl-2,3-dihydro-benzofuran-5-yl)-pyrimidin-4-ylamino]-phenyl}-benzenesulfonamide]"

# Biological target: T2, PKCε (Homo sapiens, UniProt Q02156)
# T2 construct: purchased Panvera
# T2 sequence (Q02156 1-737): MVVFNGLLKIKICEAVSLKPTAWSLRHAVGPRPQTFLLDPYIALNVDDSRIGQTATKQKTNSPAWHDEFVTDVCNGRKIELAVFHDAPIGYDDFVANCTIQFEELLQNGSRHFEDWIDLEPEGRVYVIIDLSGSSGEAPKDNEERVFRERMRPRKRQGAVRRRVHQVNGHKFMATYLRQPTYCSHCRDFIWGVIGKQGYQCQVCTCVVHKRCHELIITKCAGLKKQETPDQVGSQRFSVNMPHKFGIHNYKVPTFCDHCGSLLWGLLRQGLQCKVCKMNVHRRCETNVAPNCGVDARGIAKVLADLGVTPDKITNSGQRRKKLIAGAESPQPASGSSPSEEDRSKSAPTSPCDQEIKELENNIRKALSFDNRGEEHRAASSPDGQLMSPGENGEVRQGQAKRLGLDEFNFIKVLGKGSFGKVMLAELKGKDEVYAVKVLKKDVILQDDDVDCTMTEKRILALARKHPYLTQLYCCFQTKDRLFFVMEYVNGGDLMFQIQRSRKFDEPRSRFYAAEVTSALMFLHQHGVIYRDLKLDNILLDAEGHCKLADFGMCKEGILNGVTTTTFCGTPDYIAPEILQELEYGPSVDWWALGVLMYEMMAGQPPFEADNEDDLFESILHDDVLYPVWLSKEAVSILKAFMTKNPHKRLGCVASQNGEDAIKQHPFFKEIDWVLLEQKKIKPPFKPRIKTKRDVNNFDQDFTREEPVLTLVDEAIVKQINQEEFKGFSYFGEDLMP
# Assay: Protein Kinase C ε assay (SPA)
# Type: biochemical
# Conditions: human recombinant PKCε, PKCη pseudosubstrate, read-out: IC50, inhibition of PKC ε
# Method: as §1, §2
# Human recombinant PKCε was obtained from Panvera and is used under the assay conditions as described above (Section A.1). The enzyme is diluted in PKC dilution buffer containing 1 mM Hepes pH 7.4, 0.5 mM DTT and 0.001% Triton X-100. The kinase reaction is performed with the biotinylated PKCη pseudosubstrate solved in H2O.
row,IC50,Compound
1,4 to 21 µM,"O=S(=O)(Nc1ccc(Nc2cc(-c3ccc(OCCCN4CCOCC4)cc3)ncn2)cc1)c1c(F)cccc1F [Example 38, 2,6-Difluoro-N-(4-{6-[4-(3-morpholin-4-yl-propoxy)-phenyl]-pyrimidin-4-ylamino}-phenyl)-benzenesulfonamide]"
2,4 to 21 µM,"CN1CCN(CCOc2ccc(-c3cc(Nc4ccc(NS(=O)(=O)c5c(F)cccc5F)cc4)ncn3)cc2)CC1 [Example 47, 2,6-Difluoro-N-[4-(6-{4-[2-(4-methyl-piperazin-1-yl)-ethoxy]-phenyl}-pyrimidin-4-ylamino)-phenyl]-benzenesulfonamide]"
3,4 to 21 µM,"CC(=O)c1ccc(-c2cc(Nc3ccc(NS(=O)(=O)c4c(F)cccc4F)cc3)ncn2)cc1 [Example 27, N-{4-[6-(4-Acetyl-phenyl)-pyrimidin-4-ylamino]-phenyl}-2,6-difluoro-benzenesulfonamide]"

# Biological target: T3, PKCα (Homo sapiens, UniProt P17252)
# T3 construct: purchased Panvera (Invitrogen GmbH, Karlsruhe, Germany)
# Assay: Protein Kinase Cα assay (SPA)
# Type: biochemical
# Conditions: human recombinant PKCα, biotinylated PKCα pseudosubstrate, 0.5 mM CaCl2, read-out: IC50, inhibition of PKCα
# Method: as §1, §2
# (§4) Human recombinant PKCα was obtained from Panvera (Invitrogen GmbH, Karlsruhe, Germany) and is used under the assay conditions as described above (Section A.1). The enzyme is diluted in PKC dilution buffer containing 1 mM Hepes pH 7.4, 0.5 mM DTT and 0.001% Triton X-100. The assay additionally contains 0.5 mM CaCl2. The kinase reaction is performed with the biotinylated PKCα pseudosubstrate solved in H2O.
row,Compound,IC50
1,"O=S(=O)(Nc1ccc(Nc2cc(-c3ccc(OCCN4CCOCC4)cc3)ncn2)cc1)c1c(F)cccc1F [Example 37, 2,6-Difluoro-N-(4-{6-[4-(2-morpholin-4-yl-ethoxy)-phenyl]-pyrimidin-4-ylamino}-phenyl)-benzenesulfonamide]",1 to 18 µM
2,"CN1CCN(CCn2ccc3cc(-c4cc(Nc5ccc(NS(=O)(=O)c6ccc(F)cc6F)cc5)ncn4)ccc32)CC1 [Example 150, 2,4-Difluoro-N-[4-(6-{1-[2-(4-methyl-piperazin-1-yl)-ethyl]-1H-indol-5-yl}-pyrimidin-4-ylamino)-phenyl]-benzenesulfonamide formic acid salt]",1 to 18 µM
3,"O=S(=O)(Nc1ccc(Nc2cc(-c3ccc4[nH]ccc4c3)ncn2)cc1)c1ccccc1F [Example 120, 2-Fluoro-N-{4-[6-(1H-indol-5-yl)-pyrimidin-4-ylamino]-phenyl}-benzenesulfonamide]",1 to 18 µM

# More lines, now with the values ahead:
row,IC50,Compound
1,1 to 18 µM,"O=S(=O)(Nc1ccc(Nc2cc(-c3ccc4[nH]ccc4c3)ncn2)cc1)c1c(F)cccc1F [Example 119, 2,6-Difluoro-N-{4-[6-(1H-indol-5-yl)-pyrimidin-4-ylamino]-phenyl}-benzenesulfonamide]"
2,1 to 18 µM,"O=S(=O)(Nc1ccc(Nc2cc(-c3cccc4ccccc34)ncn2)cc1)c1c(F)cccc1F [Example 16, 2,6-Difluoro-N-[4-(6-naphthalen-1-yl-pyrimidin-4-ylamino)-phenyl]-benzenesulfonamide]"

# Biological target: T4, PKCη (Homo sapiens, UniProt P24723)
# T4 construct: made in house; host or cells: Sf21 insect cells
# Assay: Protein Kinase C η assay (SPA)
# Type: biochemical
# Conditions: human recombinant PKCη from Sf21 insect cells, read-out: IC50, inhibition of PKC η
# Method: as §1, §2
# as §3, with “PKCη” for “PKCθ”, “52, 55,” for “8, 22, 46, 115,”, “135” for “161”, “η” for “9”, “IC50 between 6 and 50” for “IC50<1”
# T4 sequence (P24723 whole entry): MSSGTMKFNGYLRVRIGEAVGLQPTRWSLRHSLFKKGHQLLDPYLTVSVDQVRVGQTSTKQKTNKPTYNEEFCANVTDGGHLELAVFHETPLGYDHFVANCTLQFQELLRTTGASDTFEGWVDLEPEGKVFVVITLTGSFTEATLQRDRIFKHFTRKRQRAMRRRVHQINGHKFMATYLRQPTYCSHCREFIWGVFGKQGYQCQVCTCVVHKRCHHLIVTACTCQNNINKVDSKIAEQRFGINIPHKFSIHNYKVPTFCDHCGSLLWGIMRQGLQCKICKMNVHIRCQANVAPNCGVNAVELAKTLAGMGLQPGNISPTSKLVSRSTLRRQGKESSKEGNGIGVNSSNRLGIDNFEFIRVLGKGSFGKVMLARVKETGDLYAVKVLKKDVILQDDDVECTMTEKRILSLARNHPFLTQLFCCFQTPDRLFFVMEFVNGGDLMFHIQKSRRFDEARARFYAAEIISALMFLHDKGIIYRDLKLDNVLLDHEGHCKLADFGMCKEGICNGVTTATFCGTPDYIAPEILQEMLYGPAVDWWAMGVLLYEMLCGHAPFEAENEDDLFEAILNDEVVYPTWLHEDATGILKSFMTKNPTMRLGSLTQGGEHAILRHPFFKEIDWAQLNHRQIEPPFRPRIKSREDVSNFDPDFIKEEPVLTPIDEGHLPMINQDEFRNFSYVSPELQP
row,IC50,Compound
1,6 to 50 µM,"Cc1ccc(S(=O)(=O)Nc2ccc(Nc3cc(-c4ccc5c(ccn5CCCN(C)C)c4)ncn3)cc2)cc1 [Example 135, N-(4-{6-[1-(3-Dimethylamino-propyl)-1H-indol-5-yl]-pyrimidin-4-ylamino}-phenyl)-4-methyl-benzenesulfonamide]"
2,6 to 50 µM,"COc1ccc(S(=O)(=O)Nc2ccc(Nc3cc(-c4ccc(OCCN5CCN(C)CC5)cc4)ncn3)cc2)cc1 [Example 52, 4-Methoxy-N-[4-(6-{4-[2-(4-methyl-piperazin-1-yl)-ethoxy]-phenyl}-pyrimidin-4-ylamino)-phenyl]-benzenesulfonamide]"
3,6 to 50 µM,"Cc1ccc(S(=O)(=O)Nc2ccc(Nc3cc(-c4ccc(OCCCN5CCN(C)CC5)cc4)ncn3)cc2)cc1 [Example 55, 4-Methyl-N-[4-(6-{4-[3-(4-methyl-piperazin-1-yl)-propoxy]-phenyl}-pyrimidin-4-ylamino)-phenyl]-benzenesulfonamide]"

# Biological target: T5, PKCβ1 (Homo sapiens, UniProt P05771)
# T5 construct: purchased Panvera
# Assay: Protein Kinase Cβ1 assay (SPA)
# Type: biochemical
# Conditions: human recombinant PKCβ1, SPA, biotinylated PKCα pseudosubstrate, 0.5 mM CaCl2; read-out: IC50, inhibition of PKC β1
# Method: as §1, §2
# as §4, with “recombinant PKCβ1” for “recombinant PKCα”, “Panvera” for “Panvera (Invitrogen GmbH, Karlsruhe, Germany)”, “H2O. The examples 29, 45, 52, 128 and 139 inhibit PKC β1 in this assay with an IC50 between 2 and 40 μM.” for “H2O.”
# T5 sequence (P05771 whole entry): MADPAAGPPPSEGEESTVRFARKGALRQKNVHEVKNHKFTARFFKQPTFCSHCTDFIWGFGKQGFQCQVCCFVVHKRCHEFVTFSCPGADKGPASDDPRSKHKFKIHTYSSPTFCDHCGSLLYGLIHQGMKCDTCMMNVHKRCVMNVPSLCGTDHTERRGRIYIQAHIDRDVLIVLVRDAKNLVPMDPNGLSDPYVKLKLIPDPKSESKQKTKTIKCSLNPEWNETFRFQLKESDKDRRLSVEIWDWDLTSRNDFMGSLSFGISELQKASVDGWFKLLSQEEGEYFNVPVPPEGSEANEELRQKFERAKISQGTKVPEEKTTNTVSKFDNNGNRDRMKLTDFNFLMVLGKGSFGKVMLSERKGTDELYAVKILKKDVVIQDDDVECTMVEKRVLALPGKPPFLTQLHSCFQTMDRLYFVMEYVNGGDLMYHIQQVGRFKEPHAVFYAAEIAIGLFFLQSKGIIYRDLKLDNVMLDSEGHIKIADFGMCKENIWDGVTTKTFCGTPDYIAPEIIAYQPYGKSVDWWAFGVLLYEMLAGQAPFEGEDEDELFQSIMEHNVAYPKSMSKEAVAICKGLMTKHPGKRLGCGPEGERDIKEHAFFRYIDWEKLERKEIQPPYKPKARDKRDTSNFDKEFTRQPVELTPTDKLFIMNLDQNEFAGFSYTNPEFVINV
row,IC50,Compound
1,2 to 40 µM,"COc1ccc(S(=O)(=O)Nc2ccc(Nc3cc(-c4ccc(OCCCN5CCOCC5)cc4)ncn3)cc2)cc1 [Example 45, 4-Methoxy-N-(4-{6-[4-(3-morpholin-4-yl-propoxy)-phenyl]-pyrimidin-4-ylamino}-phenyl)-benzenesulfonamide]"
2,2 to 40 µM,"CN(C)CCn1ccc2cc(-c3cc(Nc4ccc(NS(=O)(=O)c5c(F)cccc5F)cc4)ncn3)ccc21 [Example 139, N-(4-{6-[1-(2-Dimethylamino-ethyl)-1H-indol-5-yl]-pyrimidin-4-ylamino}-phenyl)-2,6-difluoro-benzenesulfonamide]"
3,2 to 40 µM,"COc1ccc(-c2cc(Nc3ccc(NS(=O)(=O)c4ccccc4F)cc3)ncn2)cc1 [Example 29, 2-Fluoro-N-{4-[6-(4-methoxy-phenyl)-pyrimidin-4-ylamino]-phenyl}-benzenesulfonamide]"
4,2 to 40 µM,"COc1ccc(S(=O)(=O)Nc2ccc(Nc3cc(-c4ccc(OCCN5CCN(C)CC5)cc4)ncn3)cc2)cc1 [Example 52, 4-Methoxy-N-[4-(6-{4-[2-(4-methyl-piperazin-1-yl)-ethoxy]-phenyl}-pyrimidin-4-ylamino)-phenyl]-benzenesulfonamide]"
